Source: patent publication US10966962B2, “Method for treating neurodegenerative diseases” (THE BOARD OF TRUSTEES OF THE LELAND STANFORD JUNIOR …, priority 2014, dated 2021)

Key:
[1] = tested on: microglia; assay: Microglia flow cytometry in acute STZ model of AD (TNF-α, ThioltrackerViolet, MitotrackerRed); format: in vivo, mice
Method: To induce symptoms of AD, STZ (3 mg/kg, Sigma) was administered via intracerebral injection ([…] et al, Int J Neurosci, PMID 24494726, 2014). This is a well-established model of the sporadic form of AD. Briefly, animals were anesthetized and STZ solution in 5 μl artificial cerebrospinal fluid (Harvard Apparatus) was injected through the skull with a 50 μl syringe. Control animals received a similar volume of artificial cerebrospinal fluid without STZ. The injections were performed twice, on Day 1 and Day 3. […] Treatment with ZLN005 was continued on a daily schedule until Day 7. […] Microglia were phenotyped with antibodies directed against mouse TNF-α (Biolegend) and metabolic dyes […], and MitotrackerRed (Invitrogen) for flow cytometric acquisition (LSRII, BD) and analysis (FlowJo). […] ANOVA was used for statistical analyses.

[2] = tested on: AD transgenic animals; assay: Nest building in 5XFAD AD transgenic animals; format: in vivo, mice; conditions: 25 mg/kg orally 3 times a week for 4 weeks, 7 weeks of age, vs 5XFAD-Ctrl
Method: As described in Example 7, nest-building skill is one of the most reliable measurements of motor function. In this test, AD transgenic animals were orally treated 3 times a week for 4 weeks with 0.5% methylcellulose or ZLN005 (Sigma) at 25 mg/kg in 0.5% methylcellulose, starting at 3 weeks of age. At 7 weeks of age, animals were given cotton pads and the amount of cotton that was shredded over a 24-hour period was measured. […] Unpaired t-test was used for statistical analysis.

[3] = tested on: HD transgenic mice; assay: Wheel-running test in HD transgenic animals (R6/2); format: in vivo; conditions: HD transgenic (R6/2); 25 mg/kg orally 3 times a week for 4 weeks from 6 weeks of age; constant speed 5 rpm
Method: The wheel-running test in this example was performed similarly to that described in Example 8. HD transgenic animals (R6/2) were purchased from Jackson Laboratories. […] HD transgenic mice were orally treated 3 times a week for 4 weeks with either 0.5% methylcellulose (n=8) or ZLN005 (Sigma) at 25 mg/kg in 0.5% methylcellulose (n=7), starting at 6 weeks of age. Subsequently, at 10 weeks of age, these mice were subjected to 2 weeks of training on a treadmill at a constant speed of 5 rpm (rotations per minute). After the training, mice were tested for motor performance at a constant speed of 5 rpm. […] Unpaired t-test was used for statistical analysis.

[4] = tested on: Ppargc1a
Method: To induce symptoms of PD, MPTP (20 mg/kg) was administered intraperitoneally in sterile PBS 4 times at 2-hour intervals on day 1. […] Log-rank test was used for statistical analysis.
Ppargc1a, an inducer of mitochondrial biogenesis, is widely expressed in cells throughout the body.
For protein expression studies, animals were sacrificed on Day 4, 24 hours after the 3rd oral dosage of ZLN005 and PBS-perfused brain tissues were digested with Collagenase IV, processed for microglia isolation by flow cytometry (Ginhoux et al Science, 330:841-5, 2010), and immunoblot analysis of Ppargc1a expression.

[5] = tested on: brain perivascular macrophages; assay: 2-NBDG glucose uptake in brain perivascular macrophages of ALS transgenic animals; format: in vivo, mice; conditions: 25 mg/kg orally 3 times a week for 8 weeks, 13 weeks of age
Method: ALS transgenic animals were orally treated 3 times a week for 8 weeks with 0.5% methylcellulose or ZLN005 (Sigma) at 25 mg/kg in 0.5% methylcellulose, starting at 5 weeks of age. For measuring brain perivascular macrophages, ALS-Ctrl (n=8), ALS-ZLN (n=8), and WT animal (n=12) were sacrificed at 13 weeks of age. PBS-perfused brain tissues of sacrificed animals were digested with Collagenase IV and processed for flow cytometry. Brain perivascular macrophages were stained with 2-NBDG, the fluorescent glucose analog, to measure glucose uptake for flow cytometric acquisition (LSRII, BD) and analysis (FlowJo). The results are summarized in FIG. 20; Y-axis represents % of brain perivascular macrophages that have taken up the glucose analog, 2-NBDG. […] ANOVA was used for statistical analysis.

[6] = tested on: brains of STZ-treated-animals; assay: Gene expression in brain in acute STZ model of AD; format: in vivo, mice; conditions: 25 mg/kg orally daily until Day 4
Method: To induce symptoms of AD, STZ (3 mg/kg, Sigma) was administered via intracerebral injection ([…] et al, Int J Neurosci, PMID 24494726, 2014). This is a well-established model of the sporadic form of AD. Briefly, animals were anesthetized and STZ solution in 5 μl artificial cerebrospinal fluid (Harvard Apparatus) was injected through the skull with a 50 μl syringe. Control animals received a similar volume of artificial cerebrospinal fluid without STZ. The injections were performed twice, on Day 1 and Day 3. […] Treatment with ZLN005 was continued on a daily schedule until Day 4.

[7] = tested on: MPTP-treated animals; assay: Nest-building test in MPTP model of PD; format: in vivo, mice; conditions: one dose 25 mg/kg
Method: Impaired nest-building skill has been widely used as one of the most reliable indication of motor dysfunction in the MPTP model of […] et al, Behav Brain Res, 125:109-25, 2001). In this test, animals are given cotton pads to be used as nestling, and are tested for their abilities to tear off the cotton pads into small pieces to build a nest; these abilities require fine motor coordination. Animals with microglia-specific deletion of Ppargc1a and controls were generated as described in Example 1. […] Control animals received a similar volume of PBS. Immediately after the last dosage of MPTP, each animal was put in one cage and given two cotton pads to be used in nestling; the appearance of the cotton pads was evaluated 16 hours later. The results are shown in FIG. 7 as weights of shredded nestlets (n=9-10 animals per treatment group). […] MPTP-ZLN animals generated more cotton-debris in comparison to the MPTP-Ctrl group. […] Unpaired t-tests were used for statistical analyses.

[8] = STZ-treated animals, 25 mg/kg orally daily until Day 7

## CC(C)(C)c1ccc(-c2nc3ccccc3[nH]2)cc1 [ZLN005, 2-(4-tert-butylphenyl)-1H-benzimidazole]
[1]; [8]
  TNF-α production in microglia: suppressed TNF-α production
  mitochondrial potential in microglia (MitotrackerRed): enhanced
  production of glutathione in microglia (ThioltrackerViolet): enhanced
[1]; microglia isolated from STZ-treated animals
  glycolysis in microglia: enhanced glycolysis
[2]
  nest building, amount of cotton shredded over 24 hours: significantly increased the amount of cotton shredded
[3]
  latency to fall: 110 s
[4]; MPTP-treated animals, 25 mg/kg orally, 3 doses, Day 4
  Ppargc1a protein expression in microglia: enhanced Ppargc1a protein expression in microglia
[4]; mouse, in vivo, po, 25 mg/kg
  blood-brain barrier penetration: penetrated the blood-brain barrier
[5]
  glucose uptake (2-NBDG) in brain perivascular macrophages: decreased
[6]
  expression of genes involved in Ppargc1a signaling and antioxidant defense (Tfam, Cytc) in the brain: increased expression
  expression of genes involved in β-amyloid generation (App and Psen1) in the brain: decreased the expression
[7]; MPTP-treated Cre animals
  nest-building, weights of shredded nestlets (fine motor skills): present only in FF animals but not in Cre animals
[7]; MPTP-treated FF animals, evaluated 16 hours later, vs MPTP-Ctrl
  nest-building, weights of shredded nestlets (fine motor skills): marked improvement in their fine motor skills
